Where two headings read alike, the source gives them in different places.
Assays:
[1] = 0.2 wt. % Tween 20
Procedure: A 30 wt. % nicotine HCl solution is prepared in water. To that solution is added 0.1 wt. % hydroxyethyl cellulose and 0.2 wt. % of the surfactant Tween 20. The coating solution is then applied to the microprojections using the coating methods described in U.S. Publication No. 2002/0132054.
(§1) An aqueous solution consisting of 5 wt. % nicotine base, 5 wt. % hydroxypropyl methylcellulose (HPMC, Methocel E5 premium LV EP JP, Dow Chemical Company, Midland Mich.) and 0.2 wt. % Tween 20 is prepared. The coating solution is then applied to the microprojections using the coating methods described in U.S. Publication No. 2002/0132054.

[2] = 2 cm^2 device coated with ca. 300 micrograms nicotine HCl, applied in humans with applicator
[3] = 2 cm^2 device coated with ca. 400 micrograms nicotine base; essentially immediate delivery on application to the skin
Procedure: as §1

[4] = Procedure: An aqueous solution containing 40 wt. % nicotine hydrogen tartrate was prepared. Sufficient fluorescein was added to the solution to generate a 0.001 M concentration. This agent was used to assess the quality of the coating after drying.
A strip of titanium foil was prepared by washing the surface with acetone and drying. Five microliters of the coating solution (or formulation) was applied and dried for four hours at room temperature.

Structure (SMILES): CN1CCCC1c1cccnc1.Cl (stereo not drawn) [nicotine HCl]
- coating distribution across the projections ([1]; 30 wt. % nicotine HCl in water, 0.1 wt. % hydroxyethyl cellulose): well distributed across the projections
- delivery of the nicotine contained on the projections [2]: more than 70%

Structure (SMILES): CN1CCC[C@H]1c1cccnc1 [nicotine base]
- coating distribution across the projections ([1]; aqueous 5 wt. % nicotine base, 5 wt. % HPMC): well distributed across the projections
- amount of nicotine base delivered to the user [3]: 300 micrograms

Structure (SMILES): CN1CCCC1c1cccnc1.O=C(O)C(O)C(O)C(=O)O (stereo not drawn) [nicotine hydrogen tartrate]
- quality of the coating ([4]; aqueous 40 wt. % nicotine hydrogen tartrate with 0.001 M fluorescein, 5 microliters on titanium foil, dried four hours at room temperature, no wetting agent): very poor
- quality of the coating ([4]; same coating solution with 0.1 wt. % hydroxyethyl cellulose added): noticeably improved
